# Assay results reported in patent publication US20060263761A1, “Methods and compositions for beryllium-induced Disease” (priority 2005, published 2006).
# Tests used:
# Type in all cases: cell-based, human
# [1] = tested on: PBMCs (IFN-γ-producing cells); assay: IFN-γ ELISPOT assay on PBMCs after BeSO4 exposure; settings: for ratio of IFN-γ- to IL-2-secreting cells (median): ELISPOT; for subjects demonstrating beryllium-induced IFN-γ production: threshold >1.4 SFU
# Experimental: (§1) In one exemplary method, ELISPOT assays were performed using plates (ImmunoSpot M200, BD Biosciences Pharmingen) that were coated with, IFN-γ or IL-2 capture mAb (BD Biosciences Pharmingen) overnight and blocked with Blocking Solution containing RPMI 1640 supplemented with 10% heat-inactivated fetal bovine serum (Tissue Culture Biologicals, Tulare Calif.), 20 mM HEPES, 1 mM sodium pyruvate, 100 U/ml penicillin, 100 μg/ml streptomycin, and 2 mM L-glutamine (e.g. all from Life Technologies, Gaithersburg Md.) for 2 h at room temperature. Freshly isolated PBMCs (5×10^5 cells/well) were added to wells and incubated overnight at 37° C. in a humidified 5% CO2 atmosphere with medium, PHA, or BeSO4. ELISpot assays were performed in triplicate. The wells were washed, and IFN-γ or IL-2 detection mAbs (BD Biosciences Pharmingen) were added, and the proteins were visualized by successive additions of avidin-horseradish peroxidase and 3-amino-9-ethylcarbazole (AEC) substrate reagent (BD Biosciences Pharmingen). The ELISpot plates were analyzed using a for example a CTL Immunospot Analyzer (Cellular Technology Ltd., Cleveland, Ohio), and results are reported as mean±SD spot-forming units (SFU) per well minus background SFU.
# In one exemplary method ELISPOT assays were performed on fresh PBMCs from 12 healthy control, 18 BeS and 33 CBD subjects (Table 1).
# [2] = tested on: PBMCs (IL-2-producing cells); assay: IL-2 ELISPOT assay on PBMCs after BeSO4 exposure
# Experimental: as §1
# PBMCs = assay: Lymphocyte proliferation assay ([3H]thymidine, BeLPT)
# Experimental: In one exemplary method, proliferation assays were performed using PBMCs (2.5×10^5 cells/well) cultured for 4-6 days in complete culture media containing RPMI 1640 supplemented with 10% heat-inactivated human serum (Gemini Bio-Products, Woodland Calif.) with the following stimulants: medium, 2.5 μg/ml phytohemagglutinin (PHA), 1×10^−4 M or 1×10^−5 M BeSO4 (example of one beryllium composition). The wells were pulsed with 1 μCi of [^3H] thymidine for 18 hours, and incorporation of radioactivity was determined by β-emission spectroscopy. Proliferation assays were performed in quadruplicate. The data are presented as stimulation index (SI) with a positive response defined as […]. Any other means known in the art for assessing proliferation of cells may be used.
# In another exemplary method, PBMCs from healthy control, BeS, and CBD subjects described above were examined for beryllium-induced proliferation at the same time as the ELISPOT assays were performed. […] The median SI for PBMCs from BeS and CBD patients exposed to 1×10^−4 M BeSO4 was 2.8 (range, 0.5-42) and 3.5 (0.6-85) (P=0.49), respectively. The findings were similar when expressed as ΔCPM, with the median ΔCPM from BeS and CBD patients exposed to 1×10^−4 M BeSO4 being 917 (range, 0-36,355) and 1514 (range, 0-20,884), respectively (P=0.85). […] In one exemplary method, ELISPOT analysis for IFN-γ was able to detect the presence of beryllium-specific T cells in blood. […] In 6 BeS and 7 CBD subjects, the ELISPOT assay detected IFN-γ- and/or IL-2-secreting cells in response to beryllium exposure in culture while no beryllium-induced proliferation was detected at the time of the study. […] For example, in CBD patients, the median number of beryllium-induced, IFN-γ-expressing cells was 83 SFU (range, 0-645) in subjects with and 48 SFU (range, 10-112; P=0.3) in subjects without beryllium-induced proliferation. Beryllium-induced proliferation occurred in the absence of detectable cytokine secretion in only 2 CBD patients, while both ELISPOT analysis and proliferation assay were negative in 2 BeS and 3 CBD patients.
# CD4+ T cells = assay: Intracellular cytokine staining (IFN-γ, IL-2) by flow cytometry
# Experimental: . Cells were stained with mAbs directed against CD4 and CD8 (BD Biosciences Pharmingen) followed by fixation, permeabilization, and staining with mAbs directed against IFN-γ and/or IL-2 (Caltag, Burlingame, Calif.). The lymphocyte population was identified using forward and 90° light scatter patterns, and fluorescence intensity was analyzed using a FACScaliber cytometer (Becton Dickinson) as previously described but any means known in the art may be used to identify this population.
# For example, the ratio of IFN-γ- to IL-2-secreting cells determined by ELISPOT analysis was 2.7 (median; range, 0.5-167) for CBD patients (n=33) and 1.8 (median; range, 0.5-6.9) for BeS patients (n=18) (P=0.07). To further address this issue, intracellular cytokine staining was performed on blood from 11 of the 33 CBD subjects who had large enough populations (>0.04%) of circulating beryllium-specific CD4+ T cells to allow for evaluation of Th1-type cytokine expression after beryllium exposure in culture. […] IFN-γ and IL-2 expression in CD4− T cells was equal to background levels. In the peripheral blood, the beryllium-specific CD4+ T cells appeared equally divided into two groups: T cells capable of expressing both IFN-γ and IL 2 and another expressing only IFN-γ (FIG. 4B). Similar to T cells in the lung (12), almost no cells were detected that produced IL-2 in the absence of IFN-γ expression. In these eleven CBD patients, the median percentage of IFN-γ-expressing CD4+ T cells was 0.29% (range, 0.1%-1.1%) compared to 0.07% for IL-2 (0%-0.49%; P=0.007) (FIG. 4C).
# [3] = representative CBD subject, FIG. 4A, following beryllium exposure
smiles,measurement,setting,value
"O=S(=O)([O-])[O-].[Be+2] [BeSO4, Beryllium sulfate]",ratio of IFN-γ- to IL-2-secreting cells (median),[1]; BeS patients (n=18),1.8
same,median number of IFN-γ producing cells in blood,"[1]; BeS subjects (n=18), 1×10^−4 M BeSO4",6.3 SFU
same,subjects demonstrating beryllium-induced IFN-γ production,"[1]; BeS subjects, 13 of 18, 1×10^−4 M BeSO4",72%
same,patients with a positive ELISPOT assay,"[1]; CBD and BeS subjects, 41 of 51",80%
same,median number of IFN-γ producing cells in blood,"[1]; CBD patients (n=33), 1×10^−4 M BeSO4",52 SFU
same,ratio of IFN-γ- to IL-2-secreting cells (median),[1]; CBD patients (n=33),2.7
same,"median number of beryllium-induced, IFN-γ-expressing cells",[1]; CBD patients with beryllium-induced proliferation,83 SFU
same,"median number of beryllium-induced, IFN-γ-expressing cells",[1]; CBD patients without beryllium-induced proliferation,48 SFU
same,subjects demonstrating beryllium-induced IFN-γ production,"[1]; CBD subjects, 28 of 33, 1×10^−4 M BeSO4",85%
same,IFN-γ SFU (mean±SD) of the one healthy control with a positive response,"[1]; healthy control subject, 1×10^−4 M BeSO4",2.0±2.1 SFU per 5×10^5 cells
same,median number of IFN-γ producing cells in blood,"[1]; normal control subjects (n=12), 1×10^−4 M BeSO4",0.4 SFU
same,median number of IFN-γ producing cells in blood,"[1]; treated CBD subjects, 1×10^−4 M BeSO4",117
same,median number of IFN-γ producing cells in blood,"[1]; untreated CBD subjects, 1×10^−4 M BeSO4",34
same,median number of IL-2-producing cells,[2]; BeS subjects,2.8 SFU
same,median number of IL-2-producing cells,[2]; CBD patients,16 SFU/5×10^5 cells
same,median number of IL-2-producing cells,[2]; normal control subjects,0 SFU
same,patients with a positive proliferative response,"PBMCs; BeS patients, 10 of 18, 1×10^−4 M BeSO4",55%
same,median SI (stimulation index),"PBMCs; BeS patients, 1×10^−4 M BeSO4",2.8
same,median ΔCPM,"PBMCs; BeS patients, 1×10^−4 M BeSO4",917
same,subjects with a positive beryllium-induced proliferative response (BeLPT),"PBMCs; CBD and BeS subjects, 33 of 51",65%
same,patients with a positive proliferative response,"PBMCs; CBD patients, 23 of 33, 1×10^−4 M BeSO4",70%
same,median SI (stimulation index),"PBMCs; CBD patients, 1×10^−4 M BeSO4",3.5
same,median ΔCPM,"PBMCs; CBD patients, 1×10^−4 M BeSO4",1514
same,median SI (stimulation index),"PBMCs; control subjects, 1×10^−4 M BeSO4",0.5
same,median SI (stimulation index),"PBMCs; control subjects, 1×10^−5 M BeSO4",0.7
same,median percentage of IFN-γ-expressing CD4+ T cells,CD4+ T cells; eleven CBD patients,0.29%
same,median percentage of IL-2-expressing CD4+ T cells,CD4+ T cells; eleven CBD patients,0.07%
same,CD4+ T cells expressing IFN-γ,CD4+ T cells; [3],1.1%
same,CD4+ T cells expressing IL-2,CD4+ T cells; [3],0.5%
